Patent US7166738B2, “Non-nucleoside reverse transcriptase inhibitors” (Roche Palo Alto LLC, priority 2004, dated 2007)

SMILES	melting point [°C]
CCc1ccc(CC(=O)Nc2ccccc2Cl)cc1Oc1cc(Cl)cc(Br)c1 [Compound I-24, 2-[3-(3-Bromo-5-chloro-phenoxy)-4-ethyl-phenyl]-N-(2-chloro-phenyl)-acetamide]	119.9 to 122.2
CC(C)c1ccc(CC(=O)Nc2ccc(S(N)(=O)=O)cc2)cc1Oc1cc(Cl)ccc1Br [Compound I-26, 2-[3-(2-Bromo-5-chloro-phenoxy)-4-isopropyl-phenyl]-N-(4-sulfamoyl-phenyl)-acetamide]	204.1 to 206.7
CC(C)c1ccc(CC(=O)Nc2ccccc2Cl)cc1Oc1cc(Cl)ccc1Br [Compound I-27, 2-[3-(2-Bromo-5-chloro-phenoxy)-4-isopropyl-phenyl]-N-(2-chloro-phenyl)-acetamide]	142.9 to 143.6
N#Cc1cc(C#N)cc(Oc2c(Cl)ccc(CC(=O)Nc3ccccc3Cl)c2F)c1 [Compound I-28, 2-[4-Chloro-3-(3,5-dicyano-phenoxy)-2-fluoro-phenyl]-N-(2-chloro-phenyl)-acetamide]	182.6 to 196.5
Cc1ccc(CC(=O)Nc2ccc(S(N)(=O)=O)cc2)cc1Oc1cc(Cl)ccc1Br [Compound I-30, 2-[3-(2-Bromo-5-chloro-phenoxy)-4-methyl-phenyl]-N-(4-sulfamoyl-phenyl)-acetamide]	236.9 to 239.3
Cc1cc(S(N)(=O)=O)ccc1NC(=O)Cc1ccc(C)c(Oc2cc(Cl)ccc2Br)c1 [Compound I-31, 2-[3-(2-Bromo-5-chloro-phenoxy)-4-methyl-phenyl]-N-(2-methyl-4-sulfamoyl-phenyl)-acetamide]	200.5 to 203.5
Cc1cc(S(N)(=O)=O)ccc1NC(=O)Cc1ccc(Cl)c(Oc2cc(C#N)cc(C#N)c2)c1F [Compound I-32, 2-[4-Chloro-3-(3,5-dicyano-phenoxy)-2-fluoro-phenyl]-N-(2-methyl-4-sulfamoyl-phenyl)-acetamide]	248.4 to 250.8
Cc1ccc(CC(=O)Nc2ccccc2Cl)cc1Oc1cc(Cl)ccc1Br [Compound I-33, 2-[3-(2-Bromo-5-chloro-phenoxy)-4-methyl-phenyl]-N-(2-chloro-phenyl)-acetamide]	133.9 to 135.9
Cc1ccc(CC(=O)Nc2ccccc2Cl)cc1Oc1cc(C#N)cc(C#N)c1 [Compound I-34, N-(2-Chloro-phenyl)-2-[3-(3,5-dicyano-phenoxy)-4-methyl-phenyl]-acetamide]	175.1 to 177.5
CCc1ccc(CC(=O)Nc2ccc(S(N)(=O)=O)cc2)cc1Oc1cc(Cl)cc(Br)c1Cl [Compound I-35, 2-[3-(3-Bromo-2,5-dichloro-phenoxy)-4-ethyl-phenyl]-N-(4-sulfamoyl-phenyl)-acetamide]	206.9 to 209.9
CCc1ccc(CC(=O)Nc2ccc(S(N)(=O)=O)cc2C)cc1Oc1cc(Cl)cc(Br)c1Cl [Compound I-36, 2-[3-(3-Bromo-2,5-dichloro-phenoxy)-4-ethyl-phenyl]-N-(2-methyl-4-sulfamoyl-phenyl)-acetamide]	213.2 to 219.6
CCc1ccc(CC(=O)Nc2ccccc2Cl)cc1Oc1cc(Cl)cc(Br)c1Cl [Compound I-37, 2-[3-(3-Bromo-2,5-dichloro-phenoxy)-4-ethyl-phenyl]-N-(2-chloro-phenyl)-acetamide]	146.5 to 147.6
CCc1ccc(CC(=O)Nc2ccccc2Cl)cc1Oc1cc(Br)cc(Br)c1Cl [Compound I-38, N-(2-Chloro-phenyl)-2-[3-(3,5-dibromo-2-chloro-phenoxy)-4-ethyl-phenyl]-acetamide]	155.5 to 155.8
CCc1ccc(CC(=O)Nc2ccc(S(N)(=O)=O)cc2)cc1Oc1cc(Br)cc(F)c1Cl [Compound I-39, 2-[3-(5-Bromo-2-chloro-3-fluoro-phenoxy)-4-ethyl-phenyl]-N-(4-sulfamoyl-phenyl)-acetamide]	209.9 to 211.1
CCc1ccc(CC(=O)Nc2ccc(S(N)(=O)=O)cc2C)cc1Oc1cc(Br)cc(F)c1Cl [Compound I-40, 2-[3-(5-Bromo-2-chloro-3-fluoro-phenoxy)-4-ethyl-phenyl]-N-(2-methyl-4-sulfamoyl-phenyl)-acetamide]	207 to 209.9
CCc1ccc(CC(=O)Nc2ccccc2Cl)cc1Oc1cc(Br)cc(F)c1Cl [Compound I-41, 2-[3-(5-Bromo-2-chloro-3-fluoro-phenoxy)-4-ethyl-phenyl]-N-(2-chloro-phenyl)-acetamide]	146.6 to 147.2
Cc1cc(S(N)(=O)=O)ccc1NC(=O)Cc1ccc(C)c(Oc2cc(C#N)cc(C#N)c2)c1 [Compound I-43, 2-[3-(3,5-Dicyano-phenoxy)-4-methyl-phenyl]-N-(2-methyl-4-sulfamoyl-phenyl)-acetamide]	228.6 to 230.9
Cc1ccc(CC(=O)Nc2ccc(S(N)(=O)=O)cc2Cl)cc1Oc1cc(C#N)cc(C#N)c1 [Compound I-44, N-(2-Chloro-4-sulfamoyl-phenyl)-2-[3-(3,5-dicyano-phenoxy)-4-methyl-phenyl]-acetamide]	209.9 to 211.5
CCc1ccc(CC(=O)Nc2ccc(S(N)(=O)=O)cc2)cc1Oc1cc(Cl)cc(C#N)c1 [Compound I-45, 2-[3-(3-Chloro-5-cyano-phenoxy)-4-ethyl-phenyl]-N-(4-sulfamoyl-phenyl)-acetamide]	170.7 to 172.4
CCc1ccc(CC(=O)Nc2ccc(S(N)(=O)=O)cc2C)cc1Oc1cc(Cl)cc(C#N)c1 [Compound I-46, 2-[3-(3-Chloro-5-cyano-phenoxy)-4-ethyl-phenyl]-N-(2-methyl-4-sulfamoyl-phenyl)-acetamide]	189.1 to 189.4
CCc1ccc(CC(=O)Nc2ccc(S(N)(=O)=O)cc2Cl)cc1Oc1cc(Cl)cc(C#N)c1 [Compound I-47, 2-[3-(3-Chloro-5-cyano-phenoxy)-4-ethyl-phenyl]-N-(2-chloro-4-sulfamoyl-phenyl)-acetamide]	181.1 to 183.9
CCc1ccc(CC(=O)Nc2ccc(S(=O)(=O)NC)cc2)cc1Oc1cc(Cl)cc(C#N)c1 [Compound I-48, 2-[3-(3-Chloro-5-cyano-phenoxy)-4-ethyl-phenyl]-N-(4-methylsulfamoyl-phenyl)-acetamide]	149.1 to 151.3
CCc1ccc(CC(=O)Nc2ccc(S(N)(=O)=O)cc2)cc1Oc1cc(C#N)cc(F)c1Cl [Compound I-49, 2-[3-(2-Chloro-5-cyano-3-fluoro-phenoxy)-4-ethyl-phenyl]-N-(4-sulfamoyl-phenyl)-acetamide]	167.9 to 170.5
CCc1ccc(CC(=O)Nc2ccc(S(N)(=O)=O)cc2C)cc1Oc1cc(C#N)cc(F)c1Cl [Compound I-50, 2-[3-(2-Chloro-5-cyano-3-fluoro-phenoxy)-4-ethyl-phenyl]-N-(2-methyl-4-sulfamoyl-phenyl)-acetamide]	217.6 to 220.4
CCc1ccc(CC(=O)Nc2ccc(S(N)(=O)=O)cc2)cc1Oc1cc(C#N)cc(C#N)c1Cl [Compound I-52, 2-[3-(2-Chloro-3,5-dicyano-phenoxy)-4-ethyl-phenyl]-N-(4-sulfamoyl-phenyl)-acetamide]	119.7 to 123.3
CCc1ccc(CC(=O)Nc2ccc(S(N)(=O)=O)cc2C)cc1Oc1cc(C#N)cc(C#N)c1Cl [Compound I-53, 2-[3-(2-Chloro-3,5-dicyano-phenoxy)-4-ethyl-phenyl]-N-(2-methyl-4-sulfamoyl-phenyl)-acetamide]	199.4 to 205.3
